Data taken from PMC4452251, “Characterization of a Thioredoxin-1 Gene from Taenia solium and Its Encoding Product” (BioMed Research International, 2015).

Biological target: T1, rTsTrx-1 (Taenia solium thioredoxin-1) (Taenia solium, UniProt A0A0A1E9C2)
T1 construct: gene Trx; full-length coding region, 107 residues, 11,579 Da, active site CGPC; N-terminal six-histidine tag (pRSETB), no tag removal stated
T1 sequence (A0A0A1E9C2 1-107): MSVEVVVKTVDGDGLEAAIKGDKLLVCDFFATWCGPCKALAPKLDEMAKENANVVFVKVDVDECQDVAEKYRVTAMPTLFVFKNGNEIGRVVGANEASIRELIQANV
Assay: DTT/insulin reduction turbidity assay at […] nm
Format: biochemical
Settings: 20 ug enzyme (1.5 uM) preincubated with MG 30 min at 37 C; insulin 160 uM, 1 mM DTT, 2 mM EDTA, potassium phosphate pH 6.5

CC(=O)C=O [MG, methylglyoxal]
% decrease of activity at 3 mM: 25%
